Assay results: US9273015B2, “s-Triazine compounds, pharmaceutical compositions and methods of using the same” (NEW YORK UNIVERSITY, priority 2010, dated 2016)
Converted amounts (≈) assume the structure as drawn. “Also recorded” adds a separate entry of the source. Read-outs that look alike come from different tables or passages of the source.

Legend:
A. baumannii [1] = assay: Growth inhibition (broth microdilution), A. baumannii; type: cell-based, Acinetobacter baumannii; details: Table 1
Text: (§1) The antimicrobial activity of each peptide can be tested following standard broth microdilution protocols recommended by the National Committee for Clinical Laboratory Standard. Multidrug-resistant Staphylococcus aureus strain (ATCC BAA-44) and Acinetobacter baumannii (ATCC BAA-747) can be used in this study, as well as Ampicillin- and streptomycin-resistant Escherichia coli (D31), obtained from the E. coli Genetic Resource Center (Yale University, New Haven, Conn.). Bacteria can be grown overnight in Tryptic Soy broth at 37° C. Then, cultures are diluted in Mueller-Hinton broth to a final concentration range of 2×10^4 to 2×10^5 CFU/ml. Bacterial inocula are incubated at 37° C. in phosphate-buffered saline (PBS) buffer (pH7.2) with various dilutions of peptide stock. The 18-hour absorbance data are used to calculate the percentage of inhibition for each sample by comparison with the absorbance of cultures without sample. Bacterial growth is measured by turbidity as optical density at 600 nm (OD600), using a Genesys 5 Spectrophotometer (Rochester, N.Y.) or equivalent instrument. All assays can be carried out in triplicate. The concentration of peptide that results in 50% inhibition of growth is recorded as the IC50. In addition the concentration of agents needed can be monitored to reduce the bacterial population by three logs, IC99.9. This is a more rigorous indicator of the amount needed to prevent an infection.
(§2) The antimicrobial activity of each triazine compound was tested by following standard broth microdilution protocols recommended by the National Committee for Clinical Laboratory Standard. All compounds were initially tested against Bacillus subtilis (ATCC 6633; Rockville, Md.). Bacteria were grown in Mueller Hinton Broth (MHB) at 37° C. for overnight. Then, cultures were diluted in MHB to a final concentration of 2×10^4 to 2×10^5 CFU/mL. Bacterial inocula were incubated at 37° C. in PBS buffer (pH 7.2) with varying concentrations of 2-fold dilution of triazine stocks. The 18-hour absorbance data were used to calculate the percent inhibition for each sample by comparing with the absorbance of cultures without triazine compounds. Bacterial growth was measured by turbidity as optical density at 600 nm using a Genesys 5 Spectrophotometer (Rochester, N.Y.).

E. coli D31 = assay: Growth inhibition (broth microdilution), E. coli D31; type: cell-based, Escherichia coli
Text: as §1, §2

S. aureus = assay: Growth inhibition (broth microdilution), S. aureus; type: cell-based, Staphylococcus aureus; details: for IC50: Table 3
Text: as §1, §2

fresh sheep erythrocytes = assay: Hemolytic activity; type: cell-based
Procedure: Hemolytic activity of triazine compounds is assessed using fresh sheep erythrocytes (Fitzgerald Inc., Concord, Mass.). The red blood cell suspension is incubated in PBS buffer (pH 7.2) with varying concentrations of sample stocks at 37° C. for 30 minutes, and then spun down at 3,000 rpm for 10 mins. The resulting supernatant is diluted by a factor of 40 with distilled water. The absorbance of the supernatant at 540 nm is measured using a Genesys 5 Spectrophotometer. Zero % and 100% hemolysis controls are obtained by incubating the cells with buffer and 1% Triton-X, respectively.
Hemolytic activity of three triazine compounds Is assessed on fresh sheep erythrocytes (Fitzgerald Inc., Concord, Mass.). The red blood cell suspension Is incubated in PBS buffer (pH 7.2) with varying concentrations of sample stocks at 37° C. for 30 minutes, and then spun down at 3,000 rpm for 10 mins. The resulting supernatant is diluted by a factor of 40 in distilled water. The absorbance of the supernatant at 540 nm is measured using a Genesys 5 Spectrophotometer. Zero hemolysis and 100% hemolysis controls are obtained by incubating the cells with buffer and 1% Triton-X, respectively. Sample concentration yielding 50% hemolysis is used as hemolytic dose (HD50) determined from dose-response curves.

[2] = tested on: E. coli RP437/pRSH103 biofilm; assay: Biofilm formation in 96 well plate (crystal violet, OD540); type: cell-based
Procedure: This assay is based on the protocols described previously (Li, 2001 #745; Pratt, 1998 #725) with slight modifications. Briefly, E. coli RP437 or the test strain is used to form biofilms in 96 well plates in the presence of dendrimer peptides (RW)4D or other agents. An overnight culture of E. coli RP437 grown in LB medium is used to inoculate LB medium in 96 well plates to an OD600 of 0.05. The peptides can be added to a final concentration of 0, 5, 10, 20, or 40 μM, respectively. Four replicates are tested for each condition. All samples are incubated at 37° C. without shaking for 24 hours to form the film. Then planktonic cells are removed and the plates with biofilms are washed three times with DI H2O and dried by gentle patting on a piece of paper towel. To stain the biofilms, 300 μL of 0.1% crystal violet is added into each well and incubated for 20 minutes at room temperature. Then the plates are washed three times with DI H2O to remove extra staining dye. OD540 is then measured to quantify the biofilm on the bottom of each well.
(§3) The strain for this experiment used was E. coli RP437/pRSH103, a strong film forming strain. The surface studied was that of a 96 well plate. Culture conditions were 24 hours or 48 hours of incubation in Luria-Bertani Broth (LB) supplemented with 10 μg/mL tetracycline at 37° C. The following assays were performed:
(§4) 1. Measurement of total cell growth in each well using OD600. 2. Quantification of the biofilm at the bottom of each well by staining with 0.1% crystal violet and reading OD540.
2. Quantification of total biofilm by dissolving the crystal violet with ethanol and reading at OD540 Absorbance at 540 nm and 600 nm with the medium and triazine only (no cells) was also measured to control the results by subtracting the background reading.

[3] = tested on: E. coli RP437/pRSH103 planktonic cells; assay: Total planktonic cell growth (OD600); type: cell-based; details: concentration range 0-5 μg/mL
Procedure: as §3, §4

A. baumannii [4] = assay: Evolution of resistance on exposure to sublethal concentrations; type: cell-based; details: 400 generations of exposure to sublethal concentrations
Text: FIG. 1 graphically depicts the experimental evaluation of the ability of A. baumannii to evolve resistance to sublethal TN5 and the AMP indolicidin relative to two antibiotics in current use. Changes in the IC50 of cultures exposed to sublethal doses of TN5 are expressed as ratios of the new to original values. For reference, the response of these cells to two current antibiotics is shown.
In particular, FIG. 1 depicts the results of the experimental evaluation of the ability of A. baumannii to evolve resistance to sublethal TN5 and the AMP indolicidin relative to two antibiotics in current use. Changes in the IC50 of cultures exposed to sublethal doses of TN5 are expressed as ratios of the new to original values. For reference, the response of these cells to ciprofloxacin and gentamycin, two current antibiotics is shown.

B. subtilis = assay: Growth inhibition (broth microdilution), B. subtilis; type: cell-based; details: Bacillus subtilis; for MIC50: read-out: B. Subtilis MIC50; for MIC90: read-out: B. Subtilis MIC90; for IC50: Table 3
Procedure: as §2

[5] = Escherichia coli, D31, Table 2, read-out: E. Coli MIC50
[6] = Escherichia coli, D31, Table 2, read-out: E. Coli MIC90
[7] = Escherichia coli, D31, Table 3, read-out: E. coli IC50
[8] = Staphylococcus aureus, Table 2, read-out: S. Aureus MIC50
[9] = Staphylococcus aureus, Table 2, read-out: S. Aureus MIC90

Row | Compound | MIC50 (A. baumannii [1]) [µg/mL] | MIC90 (A. baumannii [1]) [µg/mL] | MIC50 (E. coli D31; E. coli D31, Table 1) [µg/mL] | MIC90 (E. coli D31; E. coli D31, Table 1) [µg/mL] | MIC50 (S. aureus; S. aureus, Table 1) [µg/mL] | MIC90 (S. aureus; S. aureus, Table 1) [µg/mL] | HD50 (fresh sheep erythrocytes; 50% hemolysis, Table 1) [µg/mL] | Acquired resistance (change in IC50, ratio of new to original) (A. baumannii [4]) | MIC50 (E. coli D31; [5]) [µg/mL] | MIC90 (E. coli D31; [6]) [µg/mL] | MIC50 (S. aureus; [8]) [µg/mL] | MIC90 (S. aureus; [9]) [µg/mL] | IC50 (S. aureus; Staphylococcus aureus) [µg/mL] | MIC50 (B. subtilis; Table 2) [µg/mL] | MIC90 (B. subtilis; Table 2) [µg/mL] | IC50 (B. subtilis) [µg/mL] | HD50 (fresh sheep erythrocytes; Table 3) [µg/mL] | further results
1 | CCCCN(CCCC)CCCNc1nc(NCc2ccccc2)nc(Nc2cccc3ccccc23)n1 [TN2] | 12.8 (≈ 25 µM) | 15.8 (≈ 30.9 µM) | 26.9 (≈ 52.6 µM) | 55.6 (≈ 109 µM) | 12.1 (≈ 23.6 µM) | 14.55 (≈ 28.4 µM) | 840.8 | – | – | – | – | – | – | – | – | – | – | –
2 | NCCCCNc1nc(NCc2ccccc2)nc(Nc2cccc3ccccc23)n1 [TN3] | 50.8 (≈ 123 µM) | 77.4 (≈ 187 µM) | 40 (≈ 96.7 µM) | 84.8 (≈ 205 µM) | 50.1 (≈ 121 µM) | 71.3 (≈ 172 µM) | 901.9 | – | – | – | – | – | – | – | – | – | – | –
3 | CCCCN(CCCC)CCCNc1nc(NCc2ccccc2)nc(NCc2cccc3ccccc23)n1 [TN4] | 302.5 (≈ 575 µM) | 462.5 (≈ 880 µM) | 18.8 (≈ 35.8 µM) | 62.5 (≈ 119 µM) | 68 (≈ 129 µM) | 117.5 (≈ 223 µM) | 221.3 | – | – | – | – | – | – | – | – | – | – | –
4 | NCCCCNc1nc(NCc2ccccc2)nc(NCc2cccc3ccccc23)n1 [TN5] | 3 (≈ 7.02 µM) | 5.1 (≈ 11.9 µM) | 4.75 (≈ 11.1 µM) | 8.9 (≈ 20.8 µM) | 5.9 (≈ 13.8 µM) | 9.8 (≈ 22.9 µM) | 167.5 | does not acquire resistance | – | – | – | – | – | – | – | – | – | Biofilm formation ([2]; E. coli): prevents film formation; Biofilm formation ([2]; E. coli, listed as TN-5): prevents formation of biofilms; Biofilm formation ([2]; at 1, 5, 10 μg/mL, 24 or 48 hours in LB): inhibited biofilm formation; Growth of planktonic cells [3]: does not inhibit growth of planktonic cells
5 | CCCCN(CCCC)CCCNc1nc(NCCc2c[nH]c3ccccc23)nc(NCCc2c[nH]c3ccccc23)n1 [TZ-WK(Bu)2W] | – | – | – | – | – | – | – | – | 21.3 (≈ 36.6 µM) | 55.2 (≈ 94.9 µM) | 1.8 (≈ 3.09 µM) | 2.4 (≈ 4.13 µM) | 1.8 (≈ 3.09 µM) | 1 (≈ 1.72 µM) | 3.1 (≈ 5.33 µM) | 1 (≈ 1.72 µM) | 91.5 | IC50 (E. coli D31; [7]): 21.3 µg/mL (≈ 36.6 µM)
6 | NCCCNc1nc(NCCc2c[nH]c3ccccc23)nc(NCCc2c[nH]c3ccccc23)n1 [TZ-WKW] | – | – | – | – | – | – | – | – | 4.5 (≈ 9.58 µM) | 6 (≈ 12.8 µM) | 3.4 (≈ 7.24 µM) | 4.4 (≈ 9.37 µM) | 3.4 (≈ 7.24 µM) | 1.5 (≈ 3.19 µM) | 2.3 (≈ 4.9 µM) | 1.5 (≈ 3.19 µM) | 65 | IC50 (E. coli D31; Escherichia coli, D31, read-out: E. coli IC50): 4.5 µg/mL (≈ 9.58 µM)
7 | N=C(N)NCCNc1nc(NCCc2c[nH]c3ccccc23)nc(NCCc2c[nH]c3ccccc23)n1 [TZ-WRW] | – | – | – | – | – | – | – | – | 4.1 (≈ 8.24 µM) | 9.1 (≈ 18.3 µM) | 3.3 (≈ 6.63 µM) | 3.5 (≈ 7.03 µM) | 3.3 (≈ 6.63 µM) | 2.9 (≈ 5.83 µM) | 5.1 (≈ 10.2 µM) | 2.9 (≈ 5.83 µM) | 43.6 | IC50 (E. coli D31; [7]): 4.1 µg/mL (≈ 8.24 µM)
8 | CN[C@H](CC(C)C)C(=O)N[C@H]1C(=O)N[C@@H](CC(N)=O)C(=O)N[C@H]2C(=O)N[C@H]3C(=O)N[C@H](C(=O)N[C@H](C(=O)O)c4cc(O)cc(O)c4-c4cc3ccc4O)[C@H](O)c3ccc(c(Cl)c3)Oc3cc2cc(c3O[C@@H]2O[C@H](CO)[C@@H](O)[C@H](O)[C@H]2O[C@H]2C[C@](C)(N)[C@H](O)[C@H](C)O2)Oc2ccc(cc2Cl)[C@H]1O [Vancomycin, reference compound] | – | – | – | – | – | – | – | marked contrast | – | – | – | – | – | – | – | – | – | MIC50 (E. coli D31; Escherichia coli, D31, read-out: E. Coli MIC50): 192 µg/mL (≈ 132 µM); MIC90 (E. coli D31; Escherichia coli, D31, read-out: E. Coli MIC90): > 200 µg/mL; MIC50 (S. aureus; Staphylococcus aureus, read-out: S. Aureus MIC50): 0.8 µg/mL (≈ 0.552 µM); MIC90 (S. aureus; Staphylococcus aureus, read-out: S. Aureus MIC90): 1.2 µg/mL (≈ 0.828 µM); MIC50 (B. subtilis): < 0.8 µg/mL; MIC90 (B. subtilis): < 0.8 µg/mL
9 | O=C(O)c1cn(C2CC2)c2cc(N3CCNCC3)c(F)cc2c1=O [ciprofloxacin] | – | – | – | – | – | – | – | significant increase in the IC50 | – | – | – | – | – | – | – | – | – | –
10 | gentamycin | – | – | – | – | – | – | – | marked contrast; also recorded: significant increase in the IC50 | – | – | – | – | – | – | – | – | – | –
